From ChEMBL document CHEMBL5365534, “Discovery of a Novel Ketohexokinase Inhibitor with Improved Drug Distribution in Target Tissue for the Treatment of Fructose Metabolic Disease” (J Med Chem, 2023)

Tests used:
[1] = MRT (0 to t) in Sprague-Dawley rat at 10 mg/kg, po administered as single dose measured upto 24 hrs by LC-MS/MS analysis; assay type: ADME, organism-based; settings: in vivo
[2] = Elimination half life in Sprague-Dawley rat at 10 mg/kg, iv administered as single dose measured upto 24 hrs by LC-MS/MS analysis; assay type: ADME, organism-based; settings: in vivo, read-out: beta t1/2 (converted)
[3] = Cmax in Beagle dog at 5 mg/kg, po administered as single dose measured upto 24 hrs by LC-MS/MS analysis; assay type: ADME, organism-based, Canis lupus familiaris; parameters: time < 24 hrs, dose 5 mg/kg, route po; settings: in vivo
[4] = Elimination half life in Beagle dog at 5 mg/kg, po administered as single dose measured upto 24 hrs by LC-MS/MS analysis; assay type: ADME, organism-based, Canis lupus familiaris; settings: in vivo, read-out: beta t1/2 (converted)
[5] = AUC (0 to infinity) in Beagle dog at 5 mg/kg, po administered as single dose measured upto 24 hrs by LC-MS/MS analysis; assay type: ADME, organism-based, Canis lupus familiaris; parameters: time < 24 hrs, dose 5 mg/kg, route po; settings: in vivo
[6] = Oral bioavailability in Beagle dog at 5 mg/kg administered as single dose measured upto 24 hrs by LC-MS/MS analysis; assay type: ADME, organism-based, Canis lupus familiaris; settings: in vivo
[7] = Metabolic stability in mouse hepatocyte assessed as parent compound remaining at 10 uM measured after 4 hrs by LC-MS/MS analysis; assay type: ADME, cell-based; settings: hepatocytes, read-out: Stability
[8] = Drug metabolism in mouse hepatocytes assessed as glycine conjugation metabolite at 10 uM measured upto 240 mins by LC-MS/MS analysis; assay type: ADME, cell-based, Hepatocyte; settings: 4 h
[9] = target: Voltage-gated inwardly rectifying potassium channel KCNH2 (Homo sapiens, UniProt Q12809)
Voltage-gated inwardly rectifying potassium channel KCNH2, sequence (Q12809 whole entry): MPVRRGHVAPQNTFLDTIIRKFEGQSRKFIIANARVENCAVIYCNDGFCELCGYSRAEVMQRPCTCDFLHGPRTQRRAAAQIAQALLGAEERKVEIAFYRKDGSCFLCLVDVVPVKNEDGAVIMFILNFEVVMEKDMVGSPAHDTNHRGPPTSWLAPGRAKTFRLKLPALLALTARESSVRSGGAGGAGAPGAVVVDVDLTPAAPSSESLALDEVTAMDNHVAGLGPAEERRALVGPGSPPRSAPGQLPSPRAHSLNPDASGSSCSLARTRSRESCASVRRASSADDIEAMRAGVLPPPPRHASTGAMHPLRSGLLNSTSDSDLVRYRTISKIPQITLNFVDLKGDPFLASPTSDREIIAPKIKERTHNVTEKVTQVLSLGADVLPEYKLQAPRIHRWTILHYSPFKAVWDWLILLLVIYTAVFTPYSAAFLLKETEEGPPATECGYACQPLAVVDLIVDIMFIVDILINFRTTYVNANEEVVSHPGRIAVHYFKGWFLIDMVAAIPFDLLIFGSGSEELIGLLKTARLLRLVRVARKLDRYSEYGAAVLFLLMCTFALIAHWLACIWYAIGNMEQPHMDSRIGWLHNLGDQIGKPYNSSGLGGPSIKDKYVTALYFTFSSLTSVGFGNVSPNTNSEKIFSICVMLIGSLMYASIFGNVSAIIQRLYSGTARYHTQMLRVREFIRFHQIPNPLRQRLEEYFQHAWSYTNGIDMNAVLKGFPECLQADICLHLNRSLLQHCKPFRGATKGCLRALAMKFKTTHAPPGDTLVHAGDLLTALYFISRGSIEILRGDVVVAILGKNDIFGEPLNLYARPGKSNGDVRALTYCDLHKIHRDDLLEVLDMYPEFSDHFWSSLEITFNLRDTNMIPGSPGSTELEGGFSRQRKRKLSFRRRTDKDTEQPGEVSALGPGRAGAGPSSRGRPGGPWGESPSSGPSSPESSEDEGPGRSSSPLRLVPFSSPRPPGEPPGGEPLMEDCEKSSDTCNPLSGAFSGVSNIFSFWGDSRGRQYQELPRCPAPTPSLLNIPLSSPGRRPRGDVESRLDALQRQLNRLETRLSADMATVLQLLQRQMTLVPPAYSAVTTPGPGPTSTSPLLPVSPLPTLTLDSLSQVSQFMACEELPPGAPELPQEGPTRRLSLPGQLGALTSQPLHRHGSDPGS
Description: Inhibition of human ERG expressed in HEK293 cells by manual-patch clamp assay

HepG2 [10] = experiment: cells; settings: Homo sapiens, HepG2, 3 h
Description: Antiproliferative activity against human HepG2 cells incubated for 3 hrs by LC-MS analysis

HepG2 [11] = experiment: cells; settings: Homo sapiens, HepG2, 48 h
Description: Cytotoxicity against human HepG2 cells measured after 48 hrs by microscopy based analysis

in vivo [12] = settings: Sprague-Dawley, rat, spleen, po, 10 mg/kg
Description: Drug concentration in Sprague-Dawley rat spleen at 10 mg/kg, po administered as single dose measured upto 24 hrs by LC-MS/MS analysis

in vivo [13] = settings: Sprague-Dawley, rat, kidney, po, 10 mg/kg
Description: Drug concentration in Sprague-Dawley rat kidney at 10 mg/kg, po administered as single dose measured upto 24 hrs by LC-MS/MS analysis

in vivo [14] = settings: Sprague-Dawley, rat, liver/plasma, po, 10 mg/kg
Description: Ratio of drug concentration in Sprague-Dawley rat liver to plasma at 10 mg/kg, po administered as single dose measured upto 24 hrs by LC-MS/MS analysis

in vivo [15] = settings: Sprague-Dawley, rat, kidney/plasma, po, 10 mg/kg
Description: Ratio of drug concentration in Sprague-Dawley rat kidney to plasma at 10 mg/kg, po administered as single dose measured upto 24 hrs by LC-MS/MS analysis

in vitro [16] = settings: rat, liver microsomes
in vitro [17] = settings: rhesus monkey, liver microsomes
in vitro [18] = settings: human, liver microsomes
in vitro [19] = settings: rat, hepatocytes
in vitro [20] = settings: human, plasma
Description: Fraction unbound in human plasma

in vitro [21] = settings: human, primary hepatocytes
Description: Toxicity in human Primary hepatocyte incubated for 48 hrs by Celltiter-Glo assay

MRT last at 24 h [1]: 8.5 h
half-life [2]: 5.82 h
Cmax [3]: 10100 ng/mL
half-life [4]: 5.21 h
AUC [5]: 34100 ng·h/mL
bioavailability [6]: 122%
remaining at 4 h, 10 µM [7]: 96.6%
Drug metabolism [8]: Metabolite_Notdetected
IC50 (HepG2 [10]): 0.196 µM
IC50 (HepG2 [11]): > 150 µM
concentration at 24 h (in vivo [12]): 1140 ng/g
concentration at 24 h (in vivo [13]): 11000 ng/g
Kp at 24 h (in vivo [14]): 9.9
Kp at 24 h (in vivo [15]): 2.2
microsomal CLint at 2 h, 1 µM (in vitro [16]): < 6.4 µL/min/mg
microsomal CLint at 2 h, 1 µM (in vitro [17]): 10.2 µL/min/mg
microsomal CLint at 2 h, 1 µM (in vitro [18]): 6.4 µL/min/mg
hepatocyte CLint at 2 h, 1 µM (in vitro [19]): < 0.96 µL/min/1e6 cells
fraction unbound (in vitro [20]): 0.089
IC50 at 48 h (in vitro [21]): > 150 µM
Compound: C[C@H]1CCN1c1nc(N2CC[C@H](CCC(=O)O)C2)c2c(n1)C(F)(F)CC2
IC50 [9]: > 30 µM
